How the values were obtained:
[1] = molecular target: 5-hydroxytryptamine receptor 6 (Homo sapiens) (UniProt P50406); conditions: CHO-K1, filed as antagonist, time 1.0 hrs
Rattus norvegicus [2] = species: Rattus norvegicus; conditions: in vivo, ip, 10 min
Rattus norvegicus [3] = species: Rattus norvegicus; experiment: animal or person; conditions: Wistar, ip, read-out: MED

Chain of 5-hydroxytryptamine receptor 6 (Homo sapiens) (P50406 whole entry): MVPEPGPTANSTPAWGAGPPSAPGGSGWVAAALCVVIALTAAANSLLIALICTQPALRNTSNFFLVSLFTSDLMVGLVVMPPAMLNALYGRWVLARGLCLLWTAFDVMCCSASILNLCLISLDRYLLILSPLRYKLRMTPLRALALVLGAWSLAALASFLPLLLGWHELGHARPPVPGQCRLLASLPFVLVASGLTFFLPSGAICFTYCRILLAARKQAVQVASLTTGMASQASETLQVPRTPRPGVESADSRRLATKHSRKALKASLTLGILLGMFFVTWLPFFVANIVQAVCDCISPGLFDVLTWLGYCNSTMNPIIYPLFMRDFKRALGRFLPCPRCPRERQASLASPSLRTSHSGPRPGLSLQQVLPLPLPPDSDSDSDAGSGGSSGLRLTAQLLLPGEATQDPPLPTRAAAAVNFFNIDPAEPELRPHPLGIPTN

SMILES | pKb [1] | MED (Rattus norvegicus [2]) [mg/kg] | minimal effective dose (Rattus norvegicus [3]) [mg/kg]
O=S(=O)(c1ccccc1)c1cnc2c(N3CCNCC3)cccc2c1 | 9.47 |  | 
O=C1CC2(CCCC2)CC(=O)N1CCCCN1CCN(c2ncccn2)CC1 [BUSPIRONE] |  | 1 | 
CN1C(=O)CN=C(c2ccccc2)c2cc(Cl)ccc21 [DIAZEPAM] |  | 3 | 
CC(C)COc1ccc(CNC(=O)N(Cc2ccc(F)cc2)C2CCN(C)CC2)cc1 [PIMAVANSERIN] |  | 0.1 | 0.1
CN(C)CCCN1c2ccccc2CCc2ccccc21 [IMIPRAMINE] |  | 10 | 

— ChEMBL document CHEMBL5046222, “Multifunctional Arylsulfone and Arylsulfonamide-Based Ligands with Prominent Mood-Modulating Activity and Benign Safety Profile, Targeting Neuropsychiatric Symptoms of Dementia” (J Med Chem, 2021)
